The test system of this experiment is Golden Syrian hamsters. The experiment can be described thus: Monocular form deprivation (MFD) myopia animal model, axial length by A-scan ultrasonography. The format is in vivo. The conditions noted are these: after 21-day daily eye drop treatment. On the procedure:
0.125% atropine eye drop was prepared under sterile conditions by dilution of 1% atropine ophthalmic solution with artificial tears (commercially available from Alcon Laboratories, Inc., Fort Worth, Tex., USA). The Extract A and/or Extract C were mixed with 5 ml artificial tears (commercially available from Alcon Laboratories, Inc., Fort Worth, Tex., USA) to reach a final concentration of 150 ng/ml by an oscillator.
3-week old Golden Syrian hamsters, each weighing 80 to 90 grams, were used for experiments. All animals were kept in a 12-hour light/dark cycle. All procedures were approved by the Institutional Animal Care and Use Committee of China Medical University and were conducted in accordance with the guidelines of the Use of Animals in Ophthalmic and Vision Research. Hamsters were raised with right eyelid fusion for 21 days. MFD was induced in the right eyes of the animals, with their left eyes serving as a control. The animals were randomly assigned to […] receiving daily applications of artificial tears or the eye drops prepared in Example 8, respectively, to both eyes. The treatment lasted for 21 days. The axial lengths of both eyes in each animal were measured on the 21st day following the start of the treatment by A-scan ultrasonography (PacScan 300 Plus, NY, USA).

SMILES strings stand for the structures.

The values that follow come from patent US20200384053A1, “Ophthalmic Compositions and Medical Uses Thereof in Treatment of Myopia” (SunDragon Bio-medical Technology Co., priority 2019, published 2020).

`CN1[C@@H]2CC[C@H]1C[C@@H](OC(=O)C(CO)c1ccccc1)C2` (some centres unmarked) [Atropine, atropine]: for the setting “Control 0.36±0.05 mm, differences not statistically significant”, the “axial lengths of the non-MFD (left) eyes” value was 0.33±0.03 mm. Besides, the “axial lengths of the MFD (right) eyes” value (extracts 150 ng/ml, atropine 0.125%, Control 0.436±0.06 mm, p<0.05 vs Control) worked out at 0.358±0.01 mm.
